These results are taken from patent US20240352418A1, “METHOD FOR PRODUCING MULTINUCLEATED MEGAKARYOCYTE WITH ENHANCED PLATELET PRODUCTION CAPABILITY, METHOD FOR PRODUCING PLATELETS, METHOD FOR PRODUCING PLATELET PREPARATION, AND METHOD FOR PRODUCING BLOOD PREPARATION” (Megakaryon Corporation, priority 2021, published 2024).

For assay [1], the system named is multinucleated megakaryocytes induced from immortalized megakaryocyte cell line (MKCL). The assay can be described thus: Size and expansion of multinucleated megakaryocytes after BSA fractionation (FSC, phase-contrast microscope). Format: cell-based, human. Conditions: F1 fraction, phase-contrast images, FIG. 4; AZ191 1 μmol/L and blebbistatin 10 μmol/L added together to GNF351 + Y-39983 (1B vs 1A); harmine 5 μmol/L added on top (Example 1 vs 1B). The source says: Multinucleation was induced by culturing the immortalized megakaryocyte cell line obtained in Example 1(1) in the same manner as in Example 1(2). The obtained multinucleated megakaryocytes were fractionated according to the size of multinucleated megakaryocytes using bovine serum albumin. Specifically, a three-way stopcock was attached to a 50-ml injection syringe with a plunger removed, and the syringe was fixed with a clamp with a leading end of the tube facing downward. A 30% (w/v) albumin solution (derived from bovine serum, fatty acid free, Fujifilm Wako Pure Chemical Corporation #017-22231) was diluted with 1×HBSS (ThermoFisher #14175095) to prepare 2%, 4%, and 16% BSA solutions, and 16% (10 ml), 4% (4 ml), 2% (4 ml), and 0% (2 ml) solutions were layered in the above syringe in the stated order. A cell suspension containing 75×10^5 multinucleated megakaryocyte cells prepared using 2 ml of HBSS was then applied and allowed to stand for 50 minutes, so that the cells were settled under natural gravity. Then, the three-way stopcock was loosened, and the cells were collected by dropping droplets thereof. As a result, the cell population containing the multinucleated megakaryocytes was fractionated into fractions 1 to 4 (F1 to F4). Regarding the multinucleated megakaryocytes of each fraction, the number of sets of chromosomes (N) was analyzed in the same manner as in Example 1(3) above (Example 1). […]
After the fractionation, platelets were produced from multinucleated megakaryocytes by culturing the multinucleated megakaryocytes in the production culture medium excluding DOX. […] After the culturing, regarding the cell suspension containing platelets, the amount of platelets produced per megakaryocyte was calculated in the same manner as in Example 1(4).

Assay [2] concerns immortalized megakaryocyte cell line (MKCL). Kind of assay: Degree of multinucleation (number of sets of chromosomes, PI staining, flow cytometer). The class given is cell-based, human. Conditions: cultured 3 days with DOX; FIG. 1; harmine alone 10 μmol/L in growth medium (control 2); Example 1 = multinucleation culture medium; vs control 1 (growth medium). As to the method: Next, multinucleation of immortalized megakaryocytes was induced by culturing, in a culture medium to which an AhR inhibitor, a ROCK inhibitor, a DYRK inhibitor, a myosin 2 inhibitor, and harmine were added in addition to DOX. Specifically, the immortalized megakaryocyte cell line obtained in Example 1(1) was suspended in a multinucleation culture medium below, to 3.0×10^5 cells/ml. Then, the cells were seeded on a 6-well dish at 2 mL/well, or on a 125-mL Erlenmeyer Flask at 25 mL/flask, and cultured while being shaken at 100 rpm for 3 days. The culture conditions were set to 37° C. and 5% CO2. […]
The cell suspension obtained after the culturing was collected, and the number of sets of chromosomes in the cell suspension and the size of the cells were measured using a flow cytometer. […] As for the obtained results, the number of sets of chromosomes (N) contained in megakaryocytes and the size of the cells was analyzed based on FSC and PI staining intensity (Example 1). […]
The nuclear phases of the multinucleated megakaryocytes obtained using the method for producing multinucleated megakaryocytes according to the present invention were examined. […] As for the obtained results, the number of sets of chromosomes (N) contained in megakaryocytes and the size of the cells was analyzed based on FSC and PI staining intensity. […]

For `COc1cc(N2CCN(C)CC2)ccc1Nc1nccc(-c2cn(C)c3cnccc23)n1` [AZ191, N-[2-methoxy-4-(4-methyl-1-piperazinyl)phenyl]-4-(1-methyl-1H-pyrrolo [2,3-c]pyridin-3-yl)-2-pyrimidinamine], the “expansion of multinucleated megakaryocytes” value (“expansion” for short) in assay [1] is recorded as “facilitated expansion of multinucleated megakaryocytes”.
`Cc1ccc2c(c1)C(=O)C1(O)CCN(c3ccccc3)C1=N2` (stereo not shown) [blebbistatin, 3a-hydroxy-6-methyl-1-phenyl-2,3-dihydropyrrolo[2,3-b]quinolin-4-one]: in assay [1], the “expansion” value was “facilitated expansion of multinucleated megakaryocytes”.
In the case of `COc1ccc2c(c1)[nH]c1c(C)nccc12` [harmine, 7-methoxy-1-methyl-9H-pyrido[3,4-b]indole], the “degree of multinucleation (nuclear phases detected)” value in assay [2] is 32N multinucleated megakaryocytes were slightly detected. The “expansion” value in assay [1] was “no effect”.
